System: yeast genes (expressed mRNA)
Experiment: DNA chip measurement of expressed mRNA of yeast genes after culture with a toxic chemical substance
Assay type: cell-based, Saccharomyces cerevisiae S288C
How it was run: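 Yeast S288C, YPD 25° C; toxicant at log phase, 2 h, sublethal growth-inhibiting conc.; no-chemical control. Hot SDS/acetate RNA extraction, oligo-dT mRNA, Cy3/Cy5-dUTP RT. Whole-genome chip, 65° C >12 h. Readout: treated/control intensity ratio, ≥2 significant.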

O=[N+]([O-])c1cc[n+]([O-])c2ccccc12 [(5), 4-Nitroquinoline-N-oxide]
The level of expressed mRNA in the presence of chemical substance/The level of expressed mRNA in the absence of chemical substance (yeast gene YAL053W, cultured two hours with substance): 0.8 | The level of expressed mRNA in the presence of chemical substance/The level of expressed mRNA in the absence of chemical substance (yeast gene YBL048W, cultured two hours with substance): 1.3 | The level of expressed mRNA in the presence of chemical substance/The level of expressed mRNA in the absence of chemical substance (yeast gene YBL107C, cultured two hours with substance): 1.2 | The level of expressed mRNA in the presence of chemical substance/The level of expressed mRNA in the absence of chemical substance (yeast gene YDL072C, cultured two hours with substance): 1.4 | The level of expressed mRNA in the presence of chemical substance/The level of expressed mRNA in the absence of chemical substance (yeast gene YDL204W, cultured two hours with substance): 1.0 | The level of expressed mRNA in the presence of chemical substance/The level of expressed mRNA in the absence of chemical substance (yeast gene YDL222C, cultured two hours with substance): 1.0 | The level of expressed mRNA in the presence of chemical substance/The level of expressed mRNA in the absence of chemical substance (yeast gene YDR003W, cultured two hours with substance): 1.8 | The level of expressed mRNA in the presence of chemical substance/The level of expressed mRNA in the absence of chemical substance (yeast gene YDR330W, cultured two hours with substance): 1.2 | The level of expressed mRNA in the presence of chemical substance/The level of expressed mRNA in the absence of chemical substance (yeast gene YDR357C, cultured two hours with substance): 2.0 | The level of expressed mRNA in the presence of chemical substance/The level of expressed mRNA in the absence of chemical substance (yeast gene YDR391C, cultured two hours with substance): 1.2 | The level of expressed mRNA in the presence of chemical substance/The level of expressed mRNA in the absence of chemical substance (yeast gene YDR411C, cultured two hours with substance): 1.6 | The level of expressed mRNA in the presence of chemical substance/The level of expressed mRNA in the absence of chemical substance (yeast gene YDR511W, cultured two hours with substance): 1.0 | The level of expressed mRNA in the presence of chemical substance/The level of expressed mRNA in the absence of chemical substance (yeast gene YDR531W, cultured two hours with substance): 2.0 | The level of expressed mRNA in the presence of chemical substance/The level of expressed mRNA in the absence of chemical substance (yeast gene YDR539W, cultured two hours with substance): 1.8 | The level of expressed mRNA in the presence of chemical substance/The level of expressed mRNA in the absence of chemical substance (yeast gene YDR545W, cultured two hours with substance): 1.4 | The level of expressed mRNA in the presence of chemical substance/The level of expressed mRNA in the absence of chemical substance (yeast gene YEL001C, cultured two hours with substance): 0.9 | The level of expressed mRNA in the presence of chemical substance/The level of expressed mRNA in the absence of chemical substance (yeast gene YER004W, cultured two hours with substance): 1.5 | The level of expressed mRNA in the presence of chemical substance/The level of expressed mRNA in the absence of chemical substance (yeast gene YER035W, cultured two hours with substance): 1.5 | The level of expressed mRNA in the presence of chemical substance/The level of expressed mRNA in the absence of chemical substance (yeast gene YER044C, cultured two hours with substance): 1.8 | The level of expressed mRNA in the presence of chemical substance/The level of expressed mRNA in the absence of chemical substance (yeast gene YER079W, cultured two hours with substance): 0.8 | The level of expressed mRNA in the presence of chemical substance/The level of expressed mRNA in the absence of chemical substance (yeast gene YER106W, cultured two hours with substance): 1.6 | The level of expressed mRNA in the presence of chemical substance/The level of expressed mRNA in the absence of chemical substance (yeast gene YER158C, cultured two hours with substance): 0.8 | The level of expressed mRNA in the presence of chemical substance/The level of expressed mRNA in the absence of chemical substance (yeast gene YER163C, cultured two hours with substance): 0.8 | The level of expressed mRNA in the presence of chemical substance/The level of expressed mRNA in the absence of chemical substance (yeast gene YER175C, cultured two hours with substance): 0.9 | The level of expressed mRNA in the presence of chemical substance/The level of expressed mRNA in the absence of chemical substance (yeast gene YFL006W, cultured two hours with substance): 1.4 | The level of expressed mRNA in the presence of chemical substance/The level of expressed mRNA in the absence of chemical substance (yeast gene YFL010C, cultured two hours with substance): 1.3 | The level of expressed mRNA in the presence of chemical substance/The level of expressed mRNA in the absence of chemical substance (yeast gene YFL024C, cultured two hours with substance): 1.1 | The level of expressed mRNA in the presence of chemical substance/The level of expressed mRNA in the absence of chemical substance (yeast gene YFL032W, cultured two hours with substance): 0.9 | The level of expressed mRNA in the presence of chemical substance/The level of expressed mRNA in the absence of chemical substance (yeast gene YGL037C, cultured two hours with substance): 0.9 | The level of expressed mRNA in the presence of chemical substance/The level of expressed mRNA in the absence of chemical substance (yeast gene YGL047W, cultured two hours with substance): 1.3 | The level of expressed mRNA in the presence of chemical substance/The level of expressed mRNA in the absence of chemical substance (yeast gene YGL053W, cultured two hours with substance): 2.0 | The level of expressed mRNA in the presence of chemical substance/The level of expressed mRNA in the absence of chemical substance (yeast gene YGL121C, cultured two hours with substance): 0.9 | The level of expressed mRNA in the presence of chemical substance/The level of expressed mRNA in the absence of chemical substance (yeast gene YGL199C, cultured two hours with substance): 0.7 | The level of expressed mRNA in the presence of chemical substance/The level of expressed mRNA in the absence of chemical substance (yeast gene YGR101W, cultured two hours with substance): 1.2 | The level of expressed mRNA in the presence of chemical substance/The level of expressed mRNA in the absence of chemical substance (yeast gene YGR110W, cultured two hours with substance): 0.9 | The level of expressed mRNA in the presence of chemical substance/The level of expressed mRNA in the absence of chemical substance (yeast gene YGR130C, cultured two hours with substance): 1.4 | The level of expressed mRNA in the presence of chemical substance/The level of expressed mRNA in the absence of chemical substance (yeast gene YGR154C, cultured two hours with substance): 1.2 | The level of expressed mRNA in the presence of chemical substance/The level of expressed mRNA in the absence of chemical substance (yeast gene YGR221C, cultured two hours with substance): 0.9 | The level of expressed mRNA in the presence of chemical substance/The level of expressed mRNA in the absence of chemical substance (yeast gene YHR053C (detoxification protein gene)): 2.9 | The level of expressed mRNA in the presence of chemical substance/The level of expressed mRNA in the absence of chemical substance (yeast gene YHR055C (detoxification protein gene)): 2.7 | The level of expressed mRNA in the presence of chemical substance/The level of expressed mRNA in the absence of chemical substance (yeast gene YHR136C): 2.4 | The level of expressed mRNA in the presence of chemical substance/The level of expressed mRNA in the absence of chemical substance (yeast gene YHR138C, cultured two hours with substance): 1.5 | The level of expressed mRNA in the presence of chemical substance/The level of expressed mRNA in the absence of chemical substance (yeast gene YHR199C, cultured two hours with substance): 1.2 | The level of expressed mRNA in the presence of chemical substance/The level of expressed mRNA in the absence of chemical substance (yeast gene YHR209W, cultured two hours with substance): 1.8 | The level of expressed mRNA in the presence of chemical substance/The level of expressed mRNA in the absence of chemical substance (yeast gene YIL023C, cultured two hours with substance): 1.3 | The level of expressed mRNA in the presence of chemical substance/The level of expressed mRNA in the absence of chemical substance (yeast gene YIL041W, cultured two hours with substance): 0.5 | The level of expressed mRNA in the presence of chemical substance/The level of expressed mRNA in the absence of chemical substance (yeast gene YIL087C, cultured two hours with substance): 1.4 | The level of expressed mRNA in the presence of chemical substance/The level of expressed mRNA in the absence of chemical substance (yeast gene YJL057C, cultured two hours with substance): 1.5 | The level of expressed mRNA in the presence of chemical substance/The level of expressed mRNA in the absence of chemical substance (yeast gene YJL066C, cultured two hours with substance): 0.8 | The level of expressed mRNA in the presence of chemical substance/The level of expressed mRNA in the absence of chemical substance (yeast gene YJL082W, cultured two hours with substance): 1.7 | The level of expressed mRNA in the presence of chemical substance/The level of expressed mRNA in the absence of chemical substance (yeast gene YJL151C, cultured two hours with substance): 1.3 | The level of expressed mRNA in the presence of chemical substance/The level of expressed mRNA in the absence of chemical substance (yeast gene YJL152W, cultured two hours with substance): 1.6 | The level of expressed mRNA in the presence of chemical substance/The level of expressed mRNA in the absence of chemical substance (yeast gene YJL161W, cultured two hours with substance): 1.1 | The level of expressed mRNA in the presence of chemical substance/The level of expressed mRNA in the absence of chemical substance (yeast gene YJL171C, cultured two hours with substance): 1.0 | The level of expressed mRNA in the presence of chemical substance/The level of expressed mRNA in the absence of chemical substance (yeast gene YJR008W, cultured two hours with substance): 1.4 | The level of expressed mRNA in the presence of chemical substance/The level of expressed mRNA in the absence of chemical substance (yeast gene YJR054W, cultured two hours with substance): 1.0 | The level of expressed mRNA in the presence of chemical substance/The level of expressed mRNA in the absence of chemical substance (yeast gene YKL071W, cultured two hours with substance): 1.1
